Reference: ChEMBL document CHEMBL1641439, “The effect of 5-substitution on the electrochemical behavior and antitubercular activity of PA-824” (2011)
≈ marks a conversion by molar mass, not a printed value.

Key:
[1] = test system: Mycobacterium tuberculosis; assay: Antituberculosis activity against Mycobacterium tuberculosis H37Rv Ddn mutant after 2 weeks; format: functional
[2] = test system: Mycobacterium tuberculosis; assay: Antituberculosis activity against Mycobacterium tuberculosis H37Rv F420 mutant after 2 weeks; format: functional

Nc1c([N+](=O)[O-])nc2n1C[C@H](OCc1ccc(OC(F)(F)F)cc1)CO2
MIC [1]: >100 µM
MIC [2]: >100 µM

O=[N+]([O-])c1nc2n(c1Br)C[C@H](OCc1ccc(OC(F)(F)F)cc1)CO2
MIC [1]: 25 µM (≈ 11 µg/mL)
MIC [2]: 25 µM (≈ 11 µg/mL)

N#Cc1c([N+](=O)[O-])nc2n1C[C@H](OCc1ccc(OC(F)(F)F)cc1)CO2
MIC [1]: >100 µM
MIC [2]: >100 µM

O=[N+]([O-])c1nc2n(c1Cl)C[C@H](OCc1ccc(OC(F)(F)F)cc1)CO2
MIC [1]: 50 µM (≈ 19.7 µg/mL)
MIC [2]: 25 µM (≈ 9.84 µg/mL)

O=[N+]([O-])c1cn2c(n1)OC[C@@H](OCc1ccc(OC(F)(F)F)cc1)C2 [PRETOMANID]
MIC [1]: >100 µM
MIC [2]: >100 µM
